The structures appear in SMILES notation.

The values below come from BindingDB's records for doi:10.1111/j.1747-0285.2009.00857.x (Istituto Di Biostrutture E Bioimmagini-Cnr, 2009).

Some targets named below: Carbonic anhydrase 12 (Homo sapiens, UniProt O43570); Carbonic anhydrase 6 (Homo sapiens, UniProt P23280); Carbonic anhydrase 4 (Homo sapiens, UniProt P22748); Carbonic anhydrase 14 (Homo sapiens, UniProt Q9ULX7); Carbonic anhydrase 1 (Homo sapiens, UniProt P00915); Carbonic anhydrase 3 (Homo sapiens, UniProt P07451); Carbonic anhydrase 13 (Homo sapiens, UniProt Q8N1Q1); Carbonic anhydrase 7 (Homo sapiens, UniProt P43166); Carbonic anhydrase 2 (Homo sapiens, UniProt P00918).

Holding throughout (experiment): Inhibition Assay
What all share (conditions): pH 7.5; 20 °C

Test [1] addresses Carbonic anhydrase 5B, mitochondrial (Homo sapiens, UniProt Q9Y2D0).
Excerpt: (§1) Inhibition assay using carbonic anhydrases with an SX.18MV-R, a stopped-flow instrument from Applied Photophysics was used for assaying the CA catalyzed CO2 hydration activity.
Test [2] deals with Carbonic anhydrase 5A, mitochondrial (Homo sapiens, UniProt P35218).
Carbonic anhydrase 5A, mitochondrial, sequence (P35218 whole entry): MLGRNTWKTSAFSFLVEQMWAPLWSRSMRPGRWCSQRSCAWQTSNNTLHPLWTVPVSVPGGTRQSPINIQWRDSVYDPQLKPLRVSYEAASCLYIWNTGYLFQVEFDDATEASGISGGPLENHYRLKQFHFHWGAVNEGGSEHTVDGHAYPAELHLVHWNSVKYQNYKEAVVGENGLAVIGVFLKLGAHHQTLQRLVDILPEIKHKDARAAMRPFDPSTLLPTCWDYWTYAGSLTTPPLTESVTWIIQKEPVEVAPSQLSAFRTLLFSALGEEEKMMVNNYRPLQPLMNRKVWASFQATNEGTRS
Excerpt: as §1

Carbonic anhydrase 1, sequence (P00915 whole entry): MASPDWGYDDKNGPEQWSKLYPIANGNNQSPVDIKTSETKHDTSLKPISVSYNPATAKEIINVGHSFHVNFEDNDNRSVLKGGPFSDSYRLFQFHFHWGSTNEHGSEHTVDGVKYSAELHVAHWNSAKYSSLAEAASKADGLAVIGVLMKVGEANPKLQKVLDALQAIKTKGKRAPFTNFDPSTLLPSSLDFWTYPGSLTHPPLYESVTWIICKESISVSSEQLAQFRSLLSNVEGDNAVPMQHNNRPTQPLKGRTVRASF
Carbonic anhydrase 14, sequence (Q9ULX7 whole entry): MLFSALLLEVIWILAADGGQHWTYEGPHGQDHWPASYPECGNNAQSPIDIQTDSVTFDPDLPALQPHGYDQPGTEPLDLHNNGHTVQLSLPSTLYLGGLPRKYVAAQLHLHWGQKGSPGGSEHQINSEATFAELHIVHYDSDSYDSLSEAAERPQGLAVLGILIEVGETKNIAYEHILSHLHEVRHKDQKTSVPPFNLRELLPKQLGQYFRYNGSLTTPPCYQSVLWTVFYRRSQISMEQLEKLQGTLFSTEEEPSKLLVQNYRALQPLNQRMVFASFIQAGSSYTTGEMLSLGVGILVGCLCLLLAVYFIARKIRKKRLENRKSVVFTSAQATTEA
Carbonic anhydrase 4, sequence (P22748 whole entry): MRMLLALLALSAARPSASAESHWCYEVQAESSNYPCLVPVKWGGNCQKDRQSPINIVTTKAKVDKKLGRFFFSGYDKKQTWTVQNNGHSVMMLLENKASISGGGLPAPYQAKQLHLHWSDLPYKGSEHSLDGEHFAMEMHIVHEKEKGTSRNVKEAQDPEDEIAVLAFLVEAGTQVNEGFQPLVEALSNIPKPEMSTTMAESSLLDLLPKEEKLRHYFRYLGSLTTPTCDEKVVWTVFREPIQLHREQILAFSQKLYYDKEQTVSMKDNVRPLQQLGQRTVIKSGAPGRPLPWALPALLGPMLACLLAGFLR
Carbonic anhydrase 3, sequence (P07451 whole entry): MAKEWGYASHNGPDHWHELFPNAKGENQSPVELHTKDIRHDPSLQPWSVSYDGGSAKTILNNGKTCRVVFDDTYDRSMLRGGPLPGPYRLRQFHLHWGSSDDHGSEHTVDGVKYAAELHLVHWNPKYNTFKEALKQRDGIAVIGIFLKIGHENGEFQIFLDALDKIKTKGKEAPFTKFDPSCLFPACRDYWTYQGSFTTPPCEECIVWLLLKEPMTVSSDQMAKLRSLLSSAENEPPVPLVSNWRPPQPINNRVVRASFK
Carbonic anhydrase 12, sequence (O43570 whole entry): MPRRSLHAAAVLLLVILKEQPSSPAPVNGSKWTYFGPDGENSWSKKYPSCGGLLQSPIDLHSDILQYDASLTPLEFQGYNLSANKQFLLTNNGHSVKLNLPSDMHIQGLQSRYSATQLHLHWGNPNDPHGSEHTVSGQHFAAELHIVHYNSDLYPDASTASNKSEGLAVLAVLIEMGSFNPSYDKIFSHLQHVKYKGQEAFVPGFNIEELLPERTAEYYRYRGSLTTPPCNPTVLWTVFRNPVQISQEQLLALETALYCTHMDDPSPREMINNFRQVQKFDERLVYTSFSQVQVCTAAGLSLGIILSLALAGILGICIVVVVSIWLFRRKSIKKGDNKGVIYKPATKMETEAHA
Carbonic anhydrase 13, sequence (Q8N1Q1 whole entry): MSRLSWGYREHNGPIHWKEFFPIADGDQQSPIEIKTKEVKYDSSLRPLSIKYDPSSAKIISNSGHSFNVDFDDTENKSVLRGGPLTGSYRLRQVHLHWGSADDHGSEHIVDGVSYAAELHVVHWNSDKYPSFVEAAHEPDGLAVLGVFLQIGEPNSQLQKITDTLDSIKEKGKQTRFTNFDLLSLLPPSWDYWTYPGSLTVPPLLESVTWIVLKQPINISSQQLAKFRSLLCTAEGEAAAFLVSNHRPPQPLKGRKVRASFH
Carbonic anhydrase 5B, mitochondrial, sequence (Q9Y2D0 whole entry): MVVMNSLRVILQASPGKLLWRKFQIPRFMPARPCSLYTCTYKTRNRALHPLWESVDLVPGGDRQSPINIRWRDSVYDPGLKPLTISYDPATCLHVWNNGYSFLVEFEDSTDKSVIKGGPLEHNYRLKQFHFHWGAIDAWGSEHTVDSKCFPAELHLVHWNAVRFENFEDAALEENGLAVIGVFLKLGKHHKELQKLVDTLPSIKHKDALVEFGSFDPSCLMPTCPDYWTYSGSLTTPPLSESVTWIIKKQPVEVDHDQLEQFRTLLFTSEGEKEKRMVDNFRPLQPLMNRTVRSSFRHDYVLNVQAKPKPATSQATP
Carbonic anhydrase 6, sequence (P23280 whole entry): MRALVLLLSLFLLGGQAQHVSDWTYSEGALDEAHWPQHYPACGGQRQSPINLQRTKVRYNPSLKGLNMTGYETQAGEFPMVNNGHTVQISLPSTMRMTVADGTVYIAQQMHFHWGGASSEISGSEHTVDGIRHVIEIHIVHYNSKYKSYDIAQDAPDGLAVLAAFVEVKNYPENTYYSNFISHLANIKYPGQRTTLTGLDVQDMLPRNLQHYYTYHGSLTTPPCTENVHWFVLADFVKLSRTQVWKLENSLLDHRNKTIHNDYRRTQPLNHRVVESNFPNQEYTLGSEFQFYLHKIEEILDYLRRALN
Carbonic anhydrase 7, sequence (P43166 whole entry): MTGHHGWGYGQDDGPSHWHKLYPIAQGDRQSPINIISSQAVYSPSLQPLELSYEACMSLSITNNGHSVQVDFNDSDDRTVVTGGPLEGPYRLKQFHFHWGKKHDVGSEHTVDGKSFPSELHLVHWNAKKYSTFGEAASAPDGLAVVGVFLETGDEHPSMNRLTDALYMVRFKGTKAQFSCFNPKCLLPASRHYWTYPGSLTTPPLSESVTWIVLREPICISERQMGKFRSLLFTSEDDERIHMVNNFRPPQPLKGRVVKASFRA
Excerpt for Carbonic anhydrase 12: as §1
Excerpt for Carbonic anhydrase 13: as §1
Excerpt for Carbonic anhydrase 14: as §1
Excerpt for Carbonic anhydrase 2: as §1
Excerpt for Carbonic anhydrase 3: as §1
Excerpt for Carbonic anhydrase 4: as §1
Excerpt for Carbonic anhydrase 6: as §1
Excerpt for Carbonic anhydrase 7: as §1

Regarding `CC1(C)O[C@@H]2[C@@H](CC[C@@]3(COS(N)(=O)=O)OC(C)(C)O[C@@H]23)O1`, the Ki at Carbonic anhydrase 12 was 3.8 nM; on Carbonic anhydrase 6, 45 nM; in test [1], 30 nM; on Carbonic anhydrase 4, 4900 nM; at Carbonic anhydrase 14, 1460 nM; in test [2], 63 nM. Besides, the Ki at Carbonic anhydrase 1 amounted to 250 nM; at Carbonic anhydrase 3 it was 780000 nM; on Carbonic anhydrase 13 it was 47 nM.

In the case of `NS(=O)(=O)c1nnc(NC(=O)[C@]23C[C@H]4C[C@H](C[C@H](C4)C2)C3)s1` [Investigational agent, 4], the Ki at Carbonic anhydrase 12 was determined as 0.9 nM; on Carbonic anhydrase 1, 850 nM; at Carbonic anhydrase 3, 310000 nM; at Carbonic anhydrase 7 it was 0.5 nM.

For the compound `NS(=O)(=O)c1nnc(NC(=O)N[C@]23C[C@H]4C[C@H](C[C@H](C4)C2)C3)s1` [Investigational agent, 5], the Ki was found to be 4.7 nM at Carbonic anhydrase 12; 31 nM at Carbonic anhydrase 6; 45 nM in test [1]; 30 nM on Carbonic anhydrase 4; 15 nM at Carbonic anhydrase 14; 135 nM in test [2]. In addition, the Ki on Carbonic anhydrase 1 worked out at 810 nM; at Carbonic anhydrase 3 it was 330000 nM; at Carbonic anhydrase 2, 13 nM; on Carbonic anhydrase 13, 39 nM; on Carbonic anhydrase 7, 1.3 nM.

As to `NS(=O)(=O)c1ccc(N2CCCCS2(=O)=O)cc1` [Ospolot], the Ki in [1] came to 91 nM; on Carbonic anhydrase 4, 95 nM; on Carbonic anhydrase 14, 1540 nM; in test [2], 81 nM; on Carbonic anhydrase 3, 630000 nM; at Carbonic anhydrase 13 it was 1450 nM.

What is called Ki is the dissociation constant of the complex between target and ligand, obtained from inhibition or displacement. Low readings indicate tighter binding, high ones weaker binding.
